Test: Maximum concentration of dye giving a solution stable for 24 hours at room temperature (Tables 2 and 3)
Assay type: physicochemical
Experimental: The solubility values given in these Tables are the maximum concentration of dye in grams/liter giving a solution stable for 24 hours at room temperature.

[1] = Table 2, 24 hours, room temperature, salts of 1:2 chromium complex of 2-amino-4-nitrophenol→3-methyl-1-phenyl-5-pyrazolone

2-ethylhexylamine
Solubility in Acetone (acetone, 24 h): > 100 g.1^-1 | Solubility in Ethanol (24 h): 30 g.1^-1 | Solubility in Ethyl Acetate (ethyl acetate, 24 h): < 5 g.1^-1

iso-tridecylamine
Solubility in Acetone (acetone, 24 h): > 500 g.1^-1 | Solubility in Ethanol (24 h): 200 g.1^-1 | Solubility in Ethyl Acetate (ethyl acetate, 24 h): < 50 g.1^-1

aniline
Solubility in Acetone [1]: 25 g.1^-1 | Solubility in Ethyl Acetate [1]: < 5 g.1^-1

N-phenylglycine
Solubility in Acetone (acetone, 24 h): > 100 g.1^-1 | Solubility in Ethanol (24 h): 50 g.1^-1 | Solubility in Ethyl Acetate (ethyl acetate, 24 h): 100 g.1^-1

From patent US4204879A, “Amino acid salts of anionic dyestuffs which have high solubility in organic solvents” (Williams (Hounslow) Limited, priority 1976, dated 1980)
